Assay: xn = mol fraction of the nth substance listed
Settings: 101 kPa, Liquid; for speed of sound: Linear variable-path acoustic interferometer

ClC(Cl)Cl [trichloromethane] + CCCCO
Settings | mass density, 298.15 K [kg/m3] | mass density, 308.15 K [kg/m3] | speed of sound, 298.15 K [m/s] | speed of sound, 308.15 K [m/s] | viscosity, 298.15 K [mPa·s] | viscosity, 308.15 K [mPa·s]
x1 = 0.0512 | 836.7 | 828.27 | 1215 | 1190 | 2.407 | 1.883
x1 = 0.1 | 865.9 | 857 | 1198 | 1171 | 2.248 | 1.764
x1 = 0.149 | 895.66 | 886.25 | 1180 | 1153 | 2.056 | 1.628
x1 = 0.2009 | 927.49 | 917.55 | 1163 | 1134 | 1.872 | 1.501
x1 = 0.2506 | 958.3 | 947.84 | 1146 | 1116 | 1.705 | 1.372
x1 = 0.2999 | 989.27 | 978.3 | 1130 | 1099 | 1.543 | 1.26
x1 = 0.3659 | 1031.4 | 1019.75 | 1110 | 1078 | 1.351 | 1.114
x1 = 0.407 | 1057.94 | 1045.83 | 1097 | 1065 | 1.245 | 1.035
x1 = 0.4515 | 1087.02 | 1074.42 | 1085 | 1051 | 1.139 | 0.957
x1 = 0.4997 | 1118.91 | 1105.67 | 1071 | 1037 | 1.041 | 0.886
x1 = 0.5502 | 1152.78 | 1138.99 | 1058 | 1024 | 0.945 | 0.815
x1 = 0.6012 | 1187.46 | 1173.05 | 1045 | 1011 | 0.877 | 0.76
x1 = 0.6527 | 1223.02 | 1207.99 | 1033 | 998 | 0.804 | 0.71
x1 = 0.7021 | 1257.69 | 1241.99 | 1022 | 987 | 0.755 | 0.67
x1 = 0.7519 | 1293.2 | 1276.84 | 1013 | 978 | 0.715 | 0.643
x1 = 0.8021 | 1329.4 | 1312.4 | 1004 | 969 | 0.67 | 0.607
x1 = 0.8518 | 1365.91 | 1348.31 | 997 | 962 | 0.654 | 0.595
x1 = 0.9024 | 1403.63 | 1385.4 | 992 | 956 | 0.614 | 0.565
x1 = 0.951 | 1440.79 | 1421.97 | 987 | 952 | 0.596 | 0.546
x1 = 1 | 1478.82 | 1459.45 | 985 | 950 | 0.556 | 0.513

ClC(Cl)Cl [trichloromethane] + CCCO
Settings | mass density, 298.15 K [kg/m3] | mass density, 308.15 K [kg/m3] | speed of sound, 298.15 K [m/s] | speed of sound, 308.15 K [m/s] | viscosity, 298.15 K [mPa·s] | viscosity, 308.15 K [mPa·s]
x1 = 0.0521 | 838.68 | 829.81 | 1190 | 1155 | 1.84 | 1.452
x1 = 0.0995 | 872.8 | 863.45 | 1171 | 1136 | 1.734 | 1.373
x1 = 0.1503 | 909.09 | 899.13 | 1153 | 1117 | 1.611 | 1.283
x1 = 0.2009 | 944.84 | 934.26 | 1136 | 1099 | 1.492 | 1.196
x1 = 0.2497 | 979.01 | 967.92 | 1119 | 1082 | 1.374 | 1.111
x1 = 0.3057 | 1017.84 | 1006.01 | 1102 | 1064 | 1.235 | 1.011
x1 = 0.3499 | 1048.26 | 1036.01 | 1089 | 1052 | 1.155 | 0.952
x1 = 0.4031 | 1084.7 | 1071.81 | 1074 | 1036 | 1.049 | 0.886
x1 = 0.4509 | 1117.15 | 1103.72 | 1061 | 1023 | 0.968 | 0.818
x1 = 0.5055 | 1154.04 | 1139.98 | 1046 | 1009 | 0.885 | 0.76
x1 = 0.554 | 1186.48 | 1171.86 | 1035 | 998 | 0.822 | 0.714
x1 = 0.5994 | 1216.69 | 1201.5 | 1025 | 988 | 0.776 | 0.679
x1 = 0.651 | 1250.99 | 1235.18 | 1015 | 977 | 0.727 | 0.647
x1 = 0.7033 | 1285.41 | 1269.07 | 1006 | 968 | 0.705 | 0.618
x1 = 0.7505 | 1316.56 | 1299.61 | 999 | 961 | 0.666 | 0.602
x1 = 0.7999 | 1348.87 | 1331.42 | 993 | 955 | 0.64 | 0.585
x1 = 0.8507 | 1382.01 | 1363.98 | 987 | 950 | 0.625 | 0.572
x1 = 0.9002 | 1414.19 | 1395.63 | 984 | 947 | 0.605 | 0.557
x1 = 0.9484 | 1445.46 | 1426.51 | 983 | 947 | 0.586 | 0.539
x1 = 1 | 1478.82 | 1459.45 | 985 | 950 | 0.556 | 0.513

— the NIST ThermoML archive (doi:10.1016/j.jct.2006.03.010)
